The values that follow come from ChEMBL document CHEMBL5608247, “Development of a First-in-Class DNMT1/HDAC Inhibitor with Improved Therapeutic Potential and Potentiated Antitumor Immunity” (J Med Chem, 2024).

Each structure is given as a SMILES string.

The target in one test is Histone deacetylase. Description: Inhibition of HDAC extracted from human HeLa cell nucleus using Boc-Lys(Ac)-AMC as substrate preincubated for 5 mins followed by substrate addition measured after 30 mins by fluorescence based assay. It counts as subcellular.
Test [1] has as its system MV4-11. The test can be described thus: Antiproliferative activity against human MV4-11 cells incubated for 96 hrs by CCK8 assay. The format is functional, cell-based. The conditions noted are these: MV4-11, 96 h. On the technique in general: Tetrazolium assays rely on reduction of a dye to a coloured formazan, in cell work by metabolically active cells.
In test [2] the test system is MV4-11. Description: Antitumor activity against human MV4-11 cells xenografted in BALB/c nude mouse at 45 mg/kg, ip qd treated for 19 days relative to control. It counts as functional. The conditions noted are these: MV4-11, 456 h, time 19 day, read-out: TGI. For orientation: In xenograft studies the graft and the host belong to different species.
In test [3] the target is T1, DNA (cytosine-5)-methyltransferase 1 (Homo sapiens, UniProt P26358). The test can be described thus: Inhibition of DNMT1 (unknown origin) at 100 uM relative to control.
Target sequence in this assay (P26358 whole entry): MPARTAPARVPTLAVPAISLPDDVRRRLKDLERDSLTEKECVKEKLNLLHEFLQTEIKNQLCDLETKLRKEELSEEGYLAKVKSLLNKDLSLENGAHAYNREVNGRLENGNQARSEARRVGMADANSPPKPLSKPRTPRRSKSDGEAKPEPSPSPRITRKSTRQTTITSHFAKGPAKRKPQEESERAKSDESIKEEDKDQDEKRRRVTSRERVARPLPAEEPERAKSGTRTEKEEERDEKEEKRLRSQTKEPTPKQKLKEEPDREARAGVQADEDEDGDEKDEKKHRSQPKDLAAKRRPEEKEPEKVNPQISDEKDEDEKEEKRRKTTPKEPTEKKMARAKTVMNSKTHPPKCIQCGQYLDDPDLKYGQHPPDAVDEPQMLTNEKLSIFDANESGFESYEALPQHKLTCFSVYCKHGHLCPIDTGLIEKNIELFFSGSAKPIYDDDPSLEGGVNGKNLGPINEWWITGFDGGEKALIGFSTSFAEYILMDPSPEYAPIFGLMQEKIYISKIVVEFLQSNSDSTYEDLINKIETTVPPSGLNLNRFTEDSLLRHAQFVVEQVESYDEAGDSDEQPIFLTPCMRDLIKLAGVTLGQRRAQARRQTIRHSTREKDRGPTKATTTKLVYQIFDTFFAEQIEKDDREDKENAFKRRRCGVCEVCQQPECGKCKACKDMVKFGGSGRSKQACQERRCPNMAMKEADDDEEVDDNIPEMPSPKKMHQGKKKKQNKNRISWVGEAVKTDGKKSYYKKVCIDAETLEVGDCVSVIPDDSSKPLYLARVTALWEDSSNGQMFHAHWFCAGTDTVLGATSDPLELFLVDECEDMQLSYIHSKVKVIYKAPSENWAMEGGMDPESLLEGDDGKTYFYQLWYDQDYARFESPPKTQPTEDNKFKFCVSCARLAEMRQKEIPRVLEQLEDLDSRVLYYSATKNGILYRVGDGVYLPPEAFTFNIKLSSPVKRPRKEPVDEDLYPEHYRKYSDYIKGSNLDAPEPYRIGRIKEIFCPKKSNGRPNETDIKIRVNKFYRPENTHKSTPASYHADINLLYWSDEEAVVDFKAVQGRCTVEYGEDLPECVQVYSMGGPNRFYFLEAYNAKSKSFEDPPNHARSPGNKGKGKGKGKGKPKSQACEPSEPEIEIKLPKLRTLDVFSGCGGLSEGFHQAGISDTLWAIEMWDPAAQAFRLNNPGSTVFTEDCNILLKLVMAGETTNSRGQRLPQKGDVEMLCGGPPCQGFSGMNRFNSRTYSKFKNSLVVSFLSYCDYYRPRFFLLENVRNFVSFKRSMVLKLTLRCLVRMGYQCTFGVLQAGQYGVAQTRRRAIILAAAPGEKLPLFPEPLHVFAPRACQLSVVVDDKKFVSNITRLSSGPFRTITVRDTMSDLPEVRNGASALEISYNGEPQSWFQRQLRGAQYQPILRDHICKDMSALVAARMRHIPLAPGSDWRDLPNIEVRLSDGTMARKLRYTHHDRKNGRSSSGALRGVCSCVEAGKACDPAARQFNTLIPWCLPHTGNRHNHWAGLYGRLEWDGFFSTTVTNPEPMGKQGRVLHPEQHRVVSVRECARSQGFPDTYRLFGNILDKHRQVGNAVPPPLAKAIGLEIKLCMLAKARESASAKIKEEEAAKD
For test [4], the target named is DNA (cytosine-5)-methyltransferase 3A (Homo sapiens) (UniProt Q9Y6K1). Description: Inhibition of DNMT3A (unknown origin) at 100 uM relative to control.
DNA (cytosine-5)-methyltransferase 3A (Homo sapiens), sequence (Q9Y6K1 whole entry, looked up): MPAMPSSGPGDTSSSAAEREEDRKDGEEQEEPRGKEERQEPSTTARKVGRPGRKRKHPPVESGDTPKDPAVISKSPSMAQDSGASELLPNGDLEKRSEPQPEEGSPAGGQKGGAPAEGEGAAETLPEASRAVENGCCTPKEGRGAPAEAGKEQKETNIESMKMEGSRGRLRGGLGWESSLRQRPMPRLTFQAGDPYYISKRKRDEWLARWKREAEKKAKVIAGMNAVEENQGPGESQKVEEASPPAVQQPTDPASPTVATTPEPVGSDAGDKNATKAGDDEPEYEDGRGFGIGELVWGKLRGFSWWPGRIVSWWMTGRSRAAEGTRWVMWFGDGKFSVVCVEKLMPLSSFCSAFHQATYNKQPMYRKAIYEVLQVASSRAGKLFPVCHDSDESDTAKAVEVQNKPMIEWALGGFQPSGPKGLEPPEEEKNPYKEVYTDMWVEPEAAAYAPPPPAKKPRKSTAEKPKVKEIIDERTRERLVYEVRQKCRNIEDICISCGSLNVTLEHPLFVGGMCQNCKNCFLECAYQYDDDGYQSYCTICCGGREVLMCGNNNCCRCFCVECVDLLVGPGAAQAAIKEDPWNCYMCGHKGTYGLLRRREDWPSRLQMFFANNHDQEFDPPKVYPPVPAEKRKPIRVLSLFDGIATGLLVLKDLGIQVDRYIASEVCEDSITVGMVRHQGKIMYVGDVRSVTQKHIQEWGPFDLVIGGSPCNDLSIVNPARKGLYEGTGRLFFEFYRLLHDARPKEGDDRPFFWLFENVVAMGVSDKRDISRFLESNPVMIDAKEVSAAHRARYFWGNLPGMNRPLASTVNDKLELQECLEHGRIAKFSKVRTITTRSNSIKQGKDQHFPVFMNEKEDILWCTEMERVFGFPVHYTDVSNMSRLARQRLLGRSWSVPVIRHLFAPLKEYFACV
The target of test [5] is T2, DNA (cytosine-5)-methyltransferase 3B (Homo sapiens, UniProt Q9UBC3). The test can be described thus: Inhibition of DNMT3B (unknown origin) at 100 uM relative to control.
The next test concerns the target Histone deacetylase 1 (Homo sapiens, UniProt Q13547). The test can be described thus: Inhibition of HDAC1 (unknown origin).
The target of test [6] is T3, Protein deacetylase HDAC6 (Homo sapiens, UniProt Q9UBN7).
T3 sequence (Q9UBN7 whole entry): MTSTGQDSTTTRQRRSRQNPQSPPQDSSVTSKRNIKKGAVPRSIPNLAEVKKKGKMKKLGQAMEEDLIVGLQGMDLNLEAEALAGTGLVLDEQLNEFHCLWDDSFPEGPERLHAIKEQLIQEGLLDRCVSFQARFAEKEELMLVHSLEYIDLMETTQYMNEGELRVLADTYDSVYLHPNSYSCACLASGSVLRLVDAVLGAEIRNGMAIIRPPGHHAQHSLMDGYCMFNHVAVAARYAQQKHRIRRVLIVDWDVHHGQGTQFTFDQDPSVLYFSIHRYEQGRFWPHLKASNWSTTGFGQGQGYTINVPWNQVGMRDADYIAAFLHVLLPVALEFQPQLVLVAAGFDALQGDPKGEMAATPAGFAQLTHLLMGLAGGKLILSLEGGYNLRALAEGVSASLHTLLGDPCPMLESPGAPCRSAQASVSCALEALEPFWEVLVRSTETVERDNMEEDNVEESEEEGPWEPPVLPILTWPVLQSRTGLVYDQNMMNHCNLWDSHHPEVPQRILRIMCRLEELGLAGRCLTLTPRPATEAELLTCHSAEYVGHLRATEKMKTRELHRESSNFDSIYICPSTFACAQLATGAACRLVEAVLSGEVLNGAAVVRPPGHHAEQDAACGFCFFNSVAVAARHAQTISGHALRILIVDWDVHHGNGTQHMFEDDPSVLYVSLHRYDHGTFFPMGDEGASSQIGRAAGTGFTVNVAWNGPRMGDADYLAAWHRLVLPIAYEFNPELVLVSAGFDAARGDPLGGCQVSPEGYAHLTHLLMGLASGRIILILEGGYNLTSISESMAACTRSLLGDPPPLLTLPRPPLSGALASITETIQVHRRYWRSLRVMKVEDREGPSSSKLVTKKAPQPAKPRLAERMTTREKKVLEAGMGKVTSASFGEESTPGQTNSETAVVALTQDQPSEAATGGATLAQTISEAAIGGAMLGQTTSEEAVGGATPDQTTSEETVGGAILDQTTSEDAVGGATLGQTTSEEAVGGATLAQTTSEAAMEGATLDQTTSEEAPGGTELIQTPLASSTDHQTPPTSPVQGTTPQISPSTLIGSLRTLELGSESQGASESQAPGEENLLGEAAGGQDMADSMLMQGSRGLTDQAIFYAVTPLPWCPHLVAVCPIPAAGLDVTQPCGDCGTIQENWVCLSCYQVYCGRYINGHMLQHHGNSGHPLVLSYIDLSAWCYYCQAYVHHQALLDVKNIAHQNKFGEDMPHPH
Description: Inhibition of HDAC6 (unknown origin).

Test [7] deals with T2, DNA (cytosine-5)-methyltransferase 3B. Description: Inhibition of DNMT3B (unknown origin).
In test [8] the target is T1, DNA (cytosine-5)-methyltransferase 1. The test can be described thus: Inhibition of NLuc-fused DNMT1 expressed hypomorphic in human HCT-116 cells assessed as TSG repoter activation at 3 uM incubated for 72 hrs by Nano-Glo Luciferase assay. It counts as cell-based.
Target sequence in this assay (P26358 whole entry, looked up): as the sequence (P26358 whole entry) above
Test [9] shares this target. The test can be described thus: Induction of thermal stabilization of N-terminal 6xHis-FLAG-tagged […] human DNMT1 (698 to 1616 residues) extracted from Sf9 cells assessed as change in melting temperature at 10 uM by SYPRO Orange dye based PTS assay (reference value: 0.0 degreeC). The format is cell-based.
Target sequence in this assay (P26358 whole entry): as above

Histone deacetylase 1, sequence (Q13547 whole entry): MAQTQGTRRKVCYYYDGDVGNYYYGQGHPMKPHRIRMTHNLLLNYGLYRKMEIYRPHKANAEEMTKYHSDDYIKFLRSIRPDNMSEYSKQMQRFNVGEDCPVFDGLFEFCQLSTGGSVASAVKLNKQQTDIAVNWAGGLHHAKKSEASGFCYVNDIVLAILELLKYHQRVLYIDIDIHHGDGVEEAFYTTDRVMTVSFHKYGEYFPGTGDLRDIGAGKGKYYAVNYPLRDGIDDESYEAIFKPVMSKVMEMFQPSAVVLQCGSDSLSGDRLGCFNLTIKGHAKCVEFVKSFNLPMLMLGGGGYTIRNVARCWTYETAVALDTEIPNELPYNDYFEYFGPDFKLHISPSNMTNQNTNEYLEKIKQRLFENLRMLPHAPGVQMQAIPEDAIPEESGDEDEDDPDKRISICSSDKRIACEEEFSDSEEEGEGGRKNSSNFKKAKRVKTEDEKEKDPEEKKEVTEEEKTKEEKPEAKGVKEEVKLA

A word on the IC50: it is the point on the concentration scale where inhibition reaches its midpoint. Higher therefore signals weaker potency. For the molecule `CCc1c(C#N)c(SC(C(N)=O)c2ccccc2)nc(N2CCC(NC(=O)CCCCCCC(=O)NO)CC2)c1C#N` (stereo unspecified), on Histone deacetylase, the 50% inhibitory concentration (IC50) turned out to be 300 nM.

Consider `CCc1c(C#N)c(SC(C(N)=O)c2ccccc2)nc(N2CCC(NC(=O)CCC(=O)Nc3ccc(C(=O)NO)cc3)CC2)c1C#N` (stereo unspecified), for which the IC50 against Histone deacetylase came to 1300 nM.

At Histone deacetylase, `CCc1c(C#N)c(SC(C(N)=O)c2ccccc2)nc(N2CCC(NC(=O)CCC(=O)NO)CC2)c1C#N` (stereo unspecified) showed an IC50 of more than 5000 nM. In turn, `CCc1c(C#N)c(CN(C)C2CCN(c3ncc(C(=O)NO)cn3)CC2)nc(SC(C(N)=O)c2ccccc2)c1C#N` (stereo unspecified) yielded an IC50 on Histone deacetylase of 100 nM. Turning to `CCc1c(C#N)c(SC(C(N)=O)c2ccccc2)nc(N2CCC(NC(=O)CCCC(=O)NO)CC2)c1C#N` (stereo unspecified), on Histone deacetylase, the concentration for half-maximal inhibition (IC50) is 1070 nM. For `CCc1c(C#N)c(SC(C(N)=O)c2ccccc2)nc(N2CCC(NCc3ccc(C(=O)Nc4ccccc4N)cc3)CC2)c1C#N` (stereo unspecified), the half-maximal inhibitory concentration (IC50) against Histone deacetylase was more than 20000 nM. Molecule `CCc1c(C#N)c(SC(C(N)=O)c2ccccc2)nc(N2CCC(NCc3ccc(C(=O)NCc4ccc(C(=O)NO)cc4)cc3)CC2)c1C#N` (stereo unspecified) returned an IC50 against Histone deacetylase of 250 nM. As for `CCc1c(C#N)c(SC(C(N)=O)c2ccccc2)nc(N2CCN(Cc3ccc(/C=C/C(=O)NO)cc3)CC2)c1C#N` (stereo unspecified), the IC50 against Histone deacetylase is 140 nM.

For `CCc1c(C#N)c(SC(C(N)=O)c2ccccc2)nc(N2CCC(Nc3ncc(C(=O)NO)cn3)CC2)c1C#N` (stereo unspecified), the half-maximal inhibitory concentration (IC50) at Histone deacetylase stood at 190 nM. The same measure, in the same setting: under `CCc1c(C#N)c(SC(C(N)=O)c2ccccc2)nc(N2CCC(NC(=O)c3ccc(C(=O)NO)cc3)CC2)c1C#N` (stereo unspecified) stands 870 nM; under `CCc1c(C#N)c(SC(C(N)=O)c2ccccc2)nc(N(C)CCNCc2ccc(/C=C/C(=O)NO)cc2)c1C#N` (stereo unspecified), 160 nM. As for `CCc1c(C#N)c(SC(C(N)=O)c2ccccc2)nc(N2CCC(NCc3ccc(/C=C/C(=O)NO)cc3)CC2)c1C#N` (stereo unspecified), the IC50 stood at 130 nM on Histone deacetylase and 660 nM with MV4-11 [1]. Further, the inhibition in vivo at 45 mg/kg with MV4-11 [2] was 80%. Usually inhibition stands for the change of the read-out against control, counted positive when it falls. A low value points to a response near the control. Consider `CCc1c(C#N)c(SC(C(N)=O)c2ccccc2)nc(N(C)C2CCN(c3ncc(C(=O)NO)cn3)CC2)c1C#N` (stereo unspecified), for which the inhibition was determined as 69.9% in [3], 23.4% in [4] and 48.5% in test [5]. The IC50 on Histone deacetylase 1 is 56.8 nM; in [6] it was 17.4 nM; against Histone deacetylase, 230 nM. On Histone deacetylase, `CCc1c(C#N)c(SC(C(N)=O)c2ccccc2)nc(N2CCC(NC(=O)CCCCCCCC(=O)NO)CC2)c1C#N` (stereo unspecified) displayed an IC50 of 1160 nM. Take `CCc1c(C#N)c(SC(C(N)=O)c2ccccc2)nc(N2CCC(NC(=O)c3ccc(C(=O)Nc4ccccc4N)cc3)CC2)c1C#N` (stereo unspecified): on Histone deacetylase, the 50% inhibitory concentration (IC50) is more than 20000 nM. Take `CCc1c(C#N)c(SC(C(N)=O)c2ccccc2)nc(N2CCC(CNc3ncc(C(=O)NO)cn3)CC2)c1C#N` (stereo unspecified): the IC50 against Histone deacetylase came out at 140 nM.

In test [7], `O=C(NO)C1CCN(CC(O)COC(Cn2c3ccccc3c3ccccc32)Cn2c3ccccc3c3ccccc32)CC1` (stereo unspecified) registered an IC50 of 1320 nM. In the case of `CCc1c(C#N)c(SC(C(N)=O)c2ccccc2)nc(N2CCC(NC(=O)CCCCC(=O)NO)CC2)c1C#N` (stereo unspecified), the half-maximal inhibitory concentration (IC50) against Histone deacetylase is more than 5000 nM. `CCc1c(C#N)c(SC(C(N)=O)c2ccccc2)nc(N2CCC(NCc3ccc(C(=O)NO)cc3)CC2)c1C#N` (stereo unspecified) showed an IC50 on Histone deacetylase of more than 5000 nM.

On Histone deacetylase, `CCc1c(C#N)c(SC(C(N)=O)c2ccccc2)nc(N2CCC(NC(=O)CCCC(=O)Nc3ccc(C(=O)NO)cc3)CC2)c1C#N` (stereo unspecified) displayed a 50% inhibitory concentration (IC50) of 570 nM.

As to `CCc1c(C#N)c(SC(C(N)=O)c2ccccc2)nc(N2CCC(NC(=O)CCC(=O)Nc3ccc(/C=C/C(=O)NO)cc3)CC2)c1C#N` (stereo unspecified), the IC50 at Histone deacetylase is 230 nM.

At Histone deacetylase, `CCc1c(C#N)c(SC(C(N)=O)c2ccccc2)nc(N2CCC(NC(=O)CCCCC(=O)Nc3ccc(C(=O)NO)cc3)CC2)c1C#N` (stereo unspecified) returned an IC50 of 280 nM. Same read-out and setting: as for `CCc1c(C#N)c(SC(C(N)=O)c2ccccc2)nc(N2CCC(NC(=O)CCCC(=O)NCc3ccc(C(=O)NO)cc3)CC2)c1C#N` (stereo unspecified), the figure is 330 nM; as for `CCc1c(C#N)c(SC(C(N)=O)c2ccccc2)nc(N2CCC(NC(=O)CCCC(=O)Nc3ccccc3N)CC2)c1C#N` (stereo unspecified), more than 20000 nM; as for `CCc1c(C#N)c(SC(C(N)=O)c2ccccc2)nc(N2CCC(NC(=O)Cc3ccc(C(=O)Nc4ccccc4N)cc3)CC2)c1C#N` (stereo unspecified), more than 20000 nM.

Broadly, the EC50 is the concentration that produces a half-maximal response. As usually defined, the ΔTm is the shift of the melting midpoint relative to a reference. Take `CCc1c(C#N)c(SC(C(N)=O)c2ccccc2)nc(N2CCC(CNCc3ccc(/C=C/C(=O)NO)cc3)CC2)c1C#N` (stereo unspecified): in the test with MV4-11 [2], the inhibition in vivo at 45 mg/kg was 95%. The EC50 in test [8] stood at 1090 nM. Moreover, the ΔTm in test [9] amounted to 11 °C. On Histone deacetylase, `CCc1c(C#N)c(SC(C(N)=O)c2ccccc2)nc(N2CCC(NC(=O)CCC(=O)NCc3ccc(C(=O)NO)cc3)CC2)c1C#N` (stereo unspecified) came in with a concentration for half-maximal inhibition (IC50) of 230 nM.

At Histone deacetylase, `CCc1c(C#N)c(SC(C(N)=O)c2ccccc2)nc(N2CCC(NCc3ccc(C(=O)NCc4ccc(/C=C/C(=O)NO)cc4)cc3)CC2)c1C#N` (stereo unspecified) gave a 50% inhibitory concentration (IC50) of 80 nM. Take `CCc1c(C#N)c(SC(C(N)=O)c2ccccc2)nc(N2CCN(c3ncc(C(=O)NO)cn3)CC2)c1C#N` (stereo unspecified): the half-maximal inhibitory concentration (IC50) on Histone deacetylase worked out at 60 nM. As for `CCc1c(C#N)c(S[C@H](C(N)=O)c2ccccc2)nc(N2CCC(CNCc3ccc(/C=C/C(=O)NO)cc3)CC2)c1C#N`, in [8], the EC50 turned out to be 1180 nM. Moreover, the ΔTm in test [9] was 9 °C.

As to `CCc1c(C#N)c(SC(C(N)=O)c2ccccc2)nc(N2CCC(NC(=O)CCCCCC(=O)NO)CC2)c1C#N` (stereo unspecified), the IC50 against Histone deacetylase was found to be 210 nM.
